Where “and” joins values, the source holds several entries; their conditions need not be identical. Equal values may be shown once. Inconclusive results and toxic doses are left out.
Tested on: BDF1 mice, P388 leukemia ip, median survival T/C
Assay: NCI In Vivo Anticancer Drug Screen. Data for tumor model P388 Leukemia (intraperitoneal) in B6D2F1 (BDF1) mice
Conditions: endpoint: median survival time, higher = longer survival
Method in brief: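 Read-out is survival of treated animals expressed relative to the vehicle group, as a T/C ratio.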

O=C1C(CO)=C[C@@H](O)[C@H]2O[C@@H]12
T/C (dose: 0.75 mg/kg/injection, schedule: Q01DX010 (ip), vehicle: saline): 95 % of control
T/C (dose: 1.5 mg/kg/injection, schedule: Q01DX010 (ip), vehicle: saline): 110 % of control
T/C (dose: 3.0 mg/kg/injection, schedule: Q01DX010 (ip), vehicle: saline): 95 % of control and 120 % of control
T/C (dose: 6.0 mg/kg/injection, schedule: Q01DX010 (ip), vehicle: saline): 95 % of control
T/C (dose: 6.2 mg/kg/injection, schedule: Q01DX001 (ip), vehicle: saline): 155 % of control
T/C (dose: 12.0 mg/kg/injection, schedule: Q01DX010 (ip), vehicle: saline): 100 % of control
T/C (dose: 12.5 mg/kg/injection, schedule: Q01DX001 (ip), vehicle: saline): 160 % of control
T/C (dose: 24.0 mg/kg/injection, schedule: Q01DX010 (ip), vehicle: saline): 114 % of control and 115 % of control
T/C (dose: 25.0 mg/kg/injection, schedule: Q01DX001 (ip), vehicle: saline): 150 % of control
T/C (dose: 50.0 mg/kg/injection, schedule: Q01DX010 (ip), vehicle: saline): 110 % of control
T/C (dose: 96.0 mg/kg/injection, schedule: Q01DX010 (ip), vehicle: saline): 160 % of control and 161 % of control
T/C (dose: 192.0 mg/kg/injection, schedule: Q01DX010 (ip), vehicle: saline): 160 % of control
T/C (dose: 384.0 mg/kg/injection, schedule: Q01DX010 (ip), vehicle: saline): 175 % of control

c1ccc([P+](c2ccccc2)(c2ccccc2)c2ccccc2)cc1
T/C (dose: 0.06 mg/kg/injection, schedule: Q01DX009 (ip), vehicle: saline): 116 % of control
T/C (dose: 0.09 mg/kg/injection, schedule: Q01DX009 (ip), vehicle: saline): 122 % of control
T/C (dose: 0.13 mg/kg/injection, schedule: Q01DX009 (ip), vehicle: saline): 100 % of control
T/C (dose: 0.2 mg/kg/injection, schedule: Q01DX009 (ip), vehicle: saline): 100 % of control
T/C (dose: 0.3 mg/kg/injection, schedule: Q01DX009 (ip), vehicle: saline): 104 % of control
T/C (dose: 0.4 mg/kg/injection, schedule: Q01DX009 (ip), vehicle: saline): 150 % of control
T/C (dose: 0.41 mg/kg/injection, schedule: Q01DX009 (ip), vehicle: saline): 165 % of control
T/C (dose: 0.44 mg/kg/injection, schedule: Q01DX009 (ip), vehicle: saline): 120 % of control
T/C (dose: 0.62 mg/kg/injection, schedule: Q01DX009 (ip), vehicle: saline): 150 % of control and 163 % of control and 170 % of control
T/C (dose: 0.66 mg/kg/injection, schedule: Q01DX009 (ip), vehicle: saline): 171 % of control
T/C (dose: 0.67 mg/kg/injection, schedule: Q04DX003 (ip), vehicle: saline): 118 % of control
T/C (dose: 0.93 mg/kg/injection, schedule: Q01DX009 (ip), vehicle: saline): 150 % of control and 165 % of control
T/C (dose: 1.0 mg/kg/injection, schedule: Q01DX009 (ip), vehicle: Klucel (hydroxypropylcellulose) (HPC)): 155 % of control
T/C (dose: 1.0 mg/kg/injection, schedule: Q01DX009 (ip), vehicle: saline): 180 % of control
T/C (dose: 1.35 mg/kg/injection, schedule: Q04DX003 (ip), vehicle: saline): 122 % of control
T/C (dose: 1.5 mg/kg/injection, schedule: Q01DX009 (ip), vehicle: Klucel (hydroxypropylcellulose) (HPC)): 158 % of control
T/C (dose: 1.5 mg/kg/injection, schedule: Q01DX009 (ip), vehicle: saline): 154 % of control and 164 % of control
T/C (dose: 2.0 mg/kg/injection, schedule: Q01DX009 (ip), vehicle: Klucel (hydroxypropylcellulose) (HPC)): 157 % of control and 163 % of control
T/C (dose: 2.25 mg/kg/injection, schedule: Q01DX009 (ip), vehicle: saline): 164 % of control
T/C (dose: 3.2 mg/kg/injection, schedule: Q01DX009 (ip), vehicle: Klucel (hydroxypropylcellulose) (HPC)): 175 % of control
T/C (dose: 4.0 mg/kg/injection, schedule: Q01DX009 (ip), vehicle: Klucel (hydroxypropylcellulose) (HPC)): 164 % of control
T/C (dose: 4.0 mg/kg/injection, schedule: Q04DX003 (ip), vehicle: saline): 158 % of control and 165 % of control
T/C (dose: 7.5 mg/kg/injection, schedule: Q01DX009 (ip), vehicle: Klucel (hydroxypropylcellulose) (HPC)): 89 % of control and 100 % of control

O=C(CBr)c1ccc(I)cc1
T/C (dose: 13.0 mg/kg/injection, schedule: Q01DX010 (ip), vehicle: saline): 109 % of control
T/C (dose: 26.0 mg/kg/injection, schedule: Q01DX010 (ip), vehicle: saline): 109 % of control
T/C (dose: 43.0 mg/kg/injection, schedule: Q01DX010 (ip), vehicle: saline): 90 % of control

CC1([CH2][Hg][Cl])Cc2ccccc2O1 (stereo unspecified)
T/C (dose: 1.56 mg/kg/injection, schedule: Q04DX003 (ip), vehicle: saline with Tween-80): 92 % of control
T/C (dose: 3.13 mg/kg/injection, schedule: Q04DX003 (ip), vehicle: saline with Tween-80): 88 % of control

Source: PubChem BioAssay AID328 (DTP/NCI, 2004)
